In patent US12336989B2, “Transmucosal methods for treating psychiatric and neurological conditions” (INTRA-CELLULAR THERAPIES, INC., priority 2017, dated 2025):

Assays:
muscarinic receptors = details: cited from earlier work
[1] = Example 2: pharmacokinetics of oral dosing in dogs; assay type: in vivo, beagle dogs; details: sublingual and subcutaneous dosing at 1.0 mg/kg vs oral 15 mg/kg
Procedure: For control, the dogs are administered empty capsules. For the Compound of Formula I, the dogs are administered normal-release oral capsules. Blood samples are obtained at 0.25 hours, 0.5 hours, 1 hour, 4 hours, 8 hour and 24 hours. […] Cmax, Tmax and area-under-the-curve (AUC, 0-24 hours) are calculated using Phoenix WinNonlin software.

5-HT2C receptors = biological target: T1, 5-HT2C receptors (Homo sapiens, UniProt P28335); details: cited from earlier work
T1 sequence (P28335 33-458): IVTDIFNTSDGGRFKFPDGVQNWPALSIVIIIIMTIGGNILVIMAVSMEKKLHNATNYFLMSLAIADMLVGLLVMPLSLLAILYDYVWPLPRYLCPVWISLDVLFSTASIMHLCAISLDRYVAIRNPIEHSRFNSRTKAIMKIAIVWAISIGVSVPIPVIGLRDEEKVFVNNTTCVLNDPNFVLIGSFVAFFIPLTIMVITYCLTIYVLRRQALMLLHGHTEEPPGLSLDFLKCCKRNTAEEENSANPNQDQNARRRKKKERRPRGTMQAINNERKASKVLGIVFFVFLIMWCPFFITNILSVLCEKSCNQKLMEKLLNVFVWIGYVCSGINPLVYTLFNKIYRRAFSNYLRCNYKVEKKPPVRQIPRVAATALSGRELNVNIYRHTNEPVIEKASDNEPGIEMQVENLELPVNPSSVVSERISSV

[2] = biological target: H1 histaminergic receptors (Homo sapiens, UniProt P35367); details: cited from earlier work
Sequence of H1 histaminergic receptors (P35367 whole entry): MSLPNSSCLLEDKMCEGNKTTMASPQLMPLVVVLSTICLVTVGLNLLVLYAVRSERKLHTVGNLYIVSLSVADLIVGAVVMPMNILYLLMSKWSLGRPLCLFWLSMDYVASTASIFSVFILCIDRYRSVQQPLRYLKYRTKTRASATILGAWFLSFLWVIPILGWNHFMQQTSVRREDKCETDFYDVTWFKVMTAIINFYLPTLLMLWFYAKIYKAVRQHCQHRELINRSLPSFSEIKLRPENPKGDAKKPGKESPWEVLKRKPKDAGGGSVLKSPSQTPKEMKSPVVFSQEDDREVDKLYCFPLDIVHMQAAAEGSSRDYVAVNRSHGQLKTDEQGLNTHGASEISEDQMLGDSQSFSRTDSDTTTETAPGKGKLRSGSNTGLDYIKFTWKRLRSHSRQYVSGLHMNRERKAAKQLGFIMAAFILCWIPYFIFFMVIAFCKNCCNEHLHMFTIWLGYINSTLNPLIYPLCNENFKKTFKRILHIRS

24-hour AUC, times higher than oral dosing at 15 mg/kg [1]: about three
Compound: CN1CCN2c3c(cccc31)[C@@H]1CN(CCCC(=O)c3ccc(F)cc3)CC[C@@H]12 [Compound of Formula I, 1-(4-fluoro-phenyl)-4-((6bR,10aS)-3-methyl-2,3,6b,9,10,10a-hexahydro-1H,7H-pyrido[3′,4′:4,5]pyrrolo[1,2,3-de]quinoxalin-8-yl)-butan-1-one]
binding to muscarinic receptors (muscarinic receptors): negligible binding
binding to 5-HT2C receptors (5-HT2C receptors): negligible binding
binding to H1 histaminergic receptors [2]: negligible binding
